According to US20170253607A1, “LONG-ACTING HIV PROTEASE INHIBITOR” (Shionogi & Co., Ltd., priority 2014, published 2017):

Each compound was assayed against HIV-1 PR (Human immunodeficiency virus type 1 group M subtype B, UniProt P04585) (assay: HIV-protease inhibitory activity assay (FRET peptide substrate)). Settings: Test Example 1.
Type: biochemical
Method in brief: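 HIV-1 PR (0.83 ng) preincubated with compounds 20 min at room temperature in 0.1 mol/L NaAc, 0.5 mol/L NaCl, 1 mmol/L EDTA, 1 mmol/L DTT, 0.05% Tween 20, pH 4.8. Cleavage of HiLyte Fluor 488/QXL 520 FRET peptide (2 μmol/L) read after 60 minutes at 485/535 nm; IC50 from four-parameter logistic fit.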

Row | Structure (SMILES) | IC50 [nM]
1 | COc1ccc(S(=O)(=O)N(CC(C)C)CC(O)C(Cc2ccc(NCc3csc(-c4sc5c(c4C(=O)O)CC(C)(C)CC5)n3)cc2)NC(=O)OC2COC3(C)OCCC23)cc1 (stereo not drawn) [Compound I-295] | 2.19
2 | COc1ccc(S(=O)(=O)N(CC(C)C)CC(O)C(Cc2ccc(N(C)Cc3ccc(N4CC(C)(C)C4=O)cc3-c3sc4c(c3C(=O)O)CC(C)(C)CC4)cc2)NC(=O)OC2COC3(C)OCCC23)cc1 (stereo not drawn) [Compound I-750] | 4.6
3 | CCCCN(Cc1ccccc1-c1sc2c(c1C(=O)O)CC(C)(C)CC2)c1ccc(CC(NC(=O)OC2COC3(C)OCCC23)C(O)CN(CC(C)C)S(=O)(=O)c2ccc(OC)cc2)cc1 (stereo not drawn) [Compound I-457] | 5.63
4 | COc1ccc(S(=O)(=O)N(CC(C)C)CC(O)C(Cc2ccc(NCc3cc(Cl)ccc3C(=O)Nc3sc4c(c3C(=O)O)CC(C)(C)CC4)cc2)NC(=O)OC2COC3(C)OCCC23)cc1 (stereo not drawn) [Compound I-656] | 6.57
5 | COc1ccc(S(=O)(=O)N(CC(C)C)CC(O)C(Cc2ccc(OCc3ccccc3-n3nc(C(=O)O)c4c3CCC(C)(C)C4)cc2)NC(=O)OC2COC3OCCC23)cc1 (stereo not drawn) [Compound I-837] | 0.82
6 | COc1ccc(S(=O)(=O)N(CC(C)C)CC(O)C(Cc2ccc(-c3ccc(-c4sc5c(c4C(=O)O)CC(C)(C)CC5)cc3)cc2)NC(=O)OC2COC3(C)OCCC23)cc1 (stereo not drawn) [Compound I-183] | 2.39
7 | COc1ccc(S(=O)(=O)N(CC(C)C)CC(O)C(Cc2ccc(NCc3ccc(-c4sc5c(c4C(=O)O)CC(C)(C)CC5)cc3F)cc2)NC(=O)OC2COC3(C)OCCC23)cc1 (stereo not drawn) [Compound I-282] | 4.04
8 | COc1ccc(S(=O)(=O)N(CC(C)C)CC(O)C(Cc2ccc(N3CCC(Oc4cccc(-c5sc6c(c5C(=O)O)CC(C)(C)CC6)c4C)C3)cc2)NC(=O)OC2COC3(C)OCCC23)cc1 (stereo not drawn) [Compound I-597] | 7.37
9 | COc1ccc(S(=O)(=O)N(CC(C)C)CC(O)C(Cc2ccc(N3CCC(c4ccc(-c5sc6c(c5C(=O)O)CC(C)(C)CC6)cc4)C3)cc2)NC(=O)OC2COC3(C)OCCC23)cc1 (stereo not drawn) [Compound I-577] | 6.47
10 | COc1ccc(S(=O)(=O)N(CC(C)C)CC(O)C(Cc2ccc(OCc3csc(-c4sc5c(c4C(=O)O)CC(C)(C)CC5)n3)cc2)NC(=O)OC2COC3(C)OCCC23)cc1 (stereo not drawn) [Compound I-87] | 1.32
11 | COc1ccc(S(=O)(=O)N(CC(C)C)CC(O)C(Cc2ccc(NC3CCCc4c(-c5sc6c(c5C(=O)O)CC(C)(C)CC6)cccc43)cc2)NC(=O)OC2COC3(C)OCCC23)cc1 (stereo not drawn) [Compound I-752] | 13.3
12 | COc1ccc(S(=O)(=O)N(CC2CCCC2)CC(O)C(Cc2ccc(OCc3nn(C)cc3-c3sc4c(c3C(=O)O)CC(C)(C)CC4)cc2)NC(=O)OC2COC3(C)OCCC23)cc1 (stereo not drawn) [Compound I-199] | 2.35
13 | COc1ccc(S(=O)(=O)N(CC(C)C)CC(O)C(Cc2ccc(Oc3ccc(-c4sc5c(c4C(=O)O)CC(C)(C)CC5)c(OC)c3)cc2)NC(=O)OC2COC3(C)OCCC23)cc1 (stereo not drawn) [Compound I-136] | 1.4
14 | COc1ccc(S(=O)(=O)N(CC(C)C)CC(O)C(Cc2ccc(OC3CCCN(c4ccccc4-c4sc5c(c4C(=O)O)CC(C)(C)CC5)C3)cc2)NC(=O)OC2COC3(C)OCCC23)cc1 (stereo not drawn) [Compound I-100] | 1.98
15 | COc1ccc(S(=O)(=O)N(CC(C)C)CC(O)C(Cc2ccc(OCc3ccccc3-c3c(OCc4ccccc4)noc3C(=O)O)cc2)NC(=O)OC2COC3(C)OCCC23)cc1 (stereo not drawn) [Compound I-344] | 2.83
16 | COc1ccc(S(=O)(=O)N(CC(C)C)CC(O)C(Cc2ccc(N(C)Cc3cc(OC)ccc3C(=O)Nc3sc4c(c3C(=O)O)CC(C)(C)CC4)cc2)NC(=O)OC2COC3(C)OCCC23)cc1 (stereo not drawn) [Compound I-762] | 6.23
17 | COc1ccc(S(=O)(=O)N(CC2CCC2)CC(O)C(Cc2ccc(N(C)Cc3ccccc3C(=O)Nc3sc4c(c3C(=O)O)CC(C)(C)CC4)cc2)NC(=O)OC2COC3(C)OCCC23)cc1 (stereo not drawn) [Compound I-682] | 4.37
18 | COc1ccc(S(=O)(=O)N(CC(C)C)CC(O)C(Cc2ccc(OC3CCN(c4ccc(C#N)cc4-c4sc5c(c4C(=O)O)CC(C)(C)CC5)C3)cc2)NC(=O)OC2COC3(C)OCCC23)cc1 (stereo not drawn) [Compound I-200] | 5.08
19 | CC(C)CN(CC(O)C(Cc1ccc(NCc2ccccc2-c2sc3c(c2C(=O)O)CC(C)(C)CC3)cc1)NC(=O)OC1COC2(C)OCCC12)S(=O)(=O)c1ccc2nc(O)sc2c1 (stereo not drawn) [Compound I-482] | 2.27
20 | CC(C)CN(CC(O)C(Cc1ccc(NCc2cc(C(F)(F)F)ccc2-c2sc3c(c2C(=O)O)CC(C)(C)CC3)cc1)NC(=O)OC1COC2OCCC12)S(=O)(=O)c1ccc2ncsc2c1 (stereo not drawn) [Compound I-871] | 4.93
21 | CC(C)CN(CC(O)C(Cc1ccc(NCc2ccccc2C(=O)Nc2sc3c(c2C(=O)O)CC(C)(C)CC3)cc1)NC(=O)OC1COC2(C)OCCC12)S(=O)(=O)c1ccc2c(c1)OCO2 (stereo not drawn) [Compound I-591] | 3.16
22 | COc1ccc(S(=O)(=O)N(CC(C)C)CC(O)C(Cc2ccc(N3CCC(c4ccccc4-c4sc5c(c4C(=O)O)CC(C)(C)CC5)C3)cc2)NC(=O)OC2COC3(C)OCCC23)cc1 (stereo not drawn) [Compound I-523] | 9.44
23 | COc1ccc(S(=O)(=O)N(CC(C)C)CC(O)C(Cc2ccc(NCC3CC(C)(C)CCC3c3sc4c(c3C(=O)O)CC(C)(C)CC4)cc2)NC(=O)OC2COC3OCCC23)cc1 (stereo not drawn) [Compound I-887] | 2.85

Row | Structure (SMILES) | IC50 [nM]
24 | COc1ccc(S(=O)(=O)N(CC(C)C)CC(O)C(Cc2ccc(NCc3ccccc3C(=O)Nc3sc4c(c3C(=O)O)CC(C)(C)CC4)cc2)NC(=O)OC2COC3(C)OCCC23)cc1 (stereo not drawn) [Compound I-397] | 2.64
25 | COc1ccc(S(=O)(=O)N(CC(C)C)CC(O)C(Cc2ccc(NCc3cc(-c4sc5c(c4C(=O)O)CC(C)(C)CC5)ccc3OC)cc2)NC(=O)OC2COC3(C)OCCC23)cc1 (stereo not drawn) [Compound I-281] | 2.95
26 | COc1ccc(S(=O)(=O)N(CC(C)C)CC(O)C(Cc2ccc(N(C)Cc3ccc(Cl)cc3C(=O)Nc3sc4c(c3C(=O)O)CC(C)(C)CC4)cc2)NC(=O)OC2COC3(C)OCCC23)cc1 (stereo not drawn) [Compound I-659] | 9.51
27 | COc1ccc(S(=O)(=O)N(CC(C)C)CC(O)C(Cc2ccc(NCC3CCCC3c3sc4c(c3C(=O)O)CC(C)(C)CC4)cc2)NC(=O)OC2COC3OCCC23)cc1 (stereo not drawn) [Compound I-878] | 2.94
28 | COc1ccc(S(=O)(=O)N(CC(C)C)CC(O)C(Cc2ccc(OCCNC(=O)c3cc(C)cc(C)c3O)cc2)NC(=O)OC2COC3(C)OCCC23)cc1 (stereo not drawn) [Compound I-171] | 0.94
29 | COc1ccc(S(=O)(=O)N(CC(C)C)CC(O)C(Cc2ccc(N(C)Cc3nc(N4CCCC4)ccc3-c3sc4c(c3C(=O)O)CC(C)(C)CC4)cc2)NC(=O)OC2COC3(C)OCCC23)cc1 (stereo not drawn) [Compound I-755] | 2.69
30 | COc1ccc(S(=O)(=O)N(CC(C)C)CC(O)C(Cc2ccc(OCC3COCC3c3sc4c(c3C(=O)O)CC(C)(C)CC4)cc2)NC(=O)OC2COC3(C)OCCC23)cc1 (stereo not drawn) [Compound I-395] | 1.86
31 | COc1ccc(S(=O)(=O)N(CC(C)C)CC(O)C(Cc2ccc(N(C)Cc3ccc(N4CCCC4=O)cc3-c3sc4c(c3C(=O)O)CC(C)(C)CC4)cc2)NC(=O)OC2COC3(C)OCCC23)cc1 (stereo not drawn) [Compound I-744] | 2.14
32 | COc1ccc(S(=O)(=O)N(CC(C)C)CC(O)C(Cc2ccc(OCC3CN(c4ccc(C#N)cc4-c4sc5c(c4C(=O)O)CC(C)(C)CC5)C3)cc2)NC(=O)OC2COC3(C)OCCC23)cc1 (stereo not drawn) [Compound I-329] | 7.67
33 | COc1ccc(S(=O)(=O)N(CC(C)C)CC(O)C(Cc2ccc(NCC3(c4ccc(-c5sc6c(c5C(=O)O)CC(C)(C)CC6)cc4)CCCCC3)cc2)NC(=O)OC2COC3(C)OCCC23)cc1 (stereo not drawn) [Compound I-369] | 15.8
34 | COc1ccc(S(=O)(=O)N(CC(C)C)C[C@@H](O)[C@H](Cc2ccc(C#Cc3sc4c(c3C(=O)O)CC(C)(C)CC4)cc2)NC(=O)O[C@H]2CO[C@@]3(C)OCC[C@@H]23)cc1 [Compound I-11] | 1.4
35 | COc1ccc(S(=O)(=O)N(CC(C)C)CC(O)C(Cc2ccc(NCc3ccc(Cl)cc3C(=O)Nc3sc4c(c3C(=O)O)CC(C)(C)CC4)cc2)NC(=O)OC2COC3(C)OCCC23)cc1 (stereo not drawn) [Compound I-657] | 8.14
36 | COc1ccc(S(=O)(=O)N(CC(C)C)CC(O)C(Cc2ccc(N3CCc4nc(-c5sc6c(c5C(=O)O)CC(C)(C)CC6)sc4C3)cc2)NC(=O)OC2COC3(C)OCCC23)cc1 (stereo not drawn) [Compound I-225] | 2.31
37 | COc1ccc(S(=O)(=O)N(CC(C)C)CC(O)C(Cc2ccc(OCc3ccccc3-c3sc4c(c3C(=O)O)CC(F)(F)CC4)cc2)NC(=O)OC2COC3(C)OCCC23)cc1 (stereo not drawn) [Compound I-54] | 1.24
38 | CCCCC1(Cc2ccc(COc3ccc(CC(NC(=O)OC4COC5(C)OCCC45)C(O)CN(CC(C)C)S(=O)(=O)c4ccc(OC)cc4)cc3)cc2)C(=O)N(c2ccccc2)N(c2ccccc2)C1=O (stereo not drawn) [Compound I-76] | 1.35
39 | CC1(C)CCc2sc(-c3cccnc3COc3ccc(CC(NC(=O)OC4COC5(C)OCCC45)C(O)CN(CC4CCCC4)S(=O)(=O)c4ccc5c(c4)CCO5)cc3)c(C(=O)O)c2C1 (stereo not drawn) [Compound I-189] | 2.53
40 | COc1ccc(S(=O)(=O)N(CC(C)C)CC(O)C(Cc2ccc(OCc3ncsc3-c3sc4c(c3C(=O)O)CC(C)(C)CC4)cc2)NC(=O)OC2COC3OCCC23)cc1 (stereo not drawn) [Compound I-828] | 0.96
41 | COc1ccc(S(=O)(=O)N(CC(C)C)CC(O)C(Cc2ccc(CN3CCc4c(cccc4-c4sc5c(c4C(=O)O)CC(C)(C)CC5)C3)cc2)NC(=O)OC2COC3(C)OCCC23)cc1 (stereo not drawn) [Compound I-388] | 1.53
42 | COc1ccc(S(=O)(=O)N(CC(C)C)CC(O)C(Cc2ccc(NCc3ccccc3OCC(=O)O)cc2)NC(=O)OC2COC3(C)OCCC23)cc1 (stereo not drawn) [Compound I-315] | 1.98
43 | COc1ccc(S(=O)(=O)N(CC(C)C)CC(O)C(Cc2ccc(NCc3nc(N4CCC4)sc3-c3sc4c(c3C(=O)O)CC(C)(C)CC4)cc2)NC(=O)OC2COC3(C)OCCC23)cc1 (stereo not drawn) [Compound I-753] | 2.39
44 | CC(C)CN(CC(O)C(Cc1ccc(OCc2ccc(-c3ccc(F)cc3F)nc2C(=O)O)cc1)NC(=O)OC1COC2OCCC12)S(=O)(=O)c1ccc2ncsc2c1 (stereo not drawn) [Compound I-840] | 0.71
45 | COc1ccc(S(=O)(=O)N(CC(C)C)CC(O)C(Cc2ccc(OCC3CCC(Nc4ccc(C#N)cc4-c4sc5c(c4C(=O)O)CC(C)(C)CC5)CC3)cc2)NC(=O)OC2COC3(C)OCCC23)cc1 (stereo not drawn) [Compound I-330] | 40.6
